From patent US4428937A, “Antibacterial agents” (Beecham Group Limited, priority 1975, dated 1984)

How the values were obtained:
[1] = system: Staphylococcus aureus Russell; assay: In-vitro synergy: MIC of ampicillin in presence of sodium deoxyclavulanate; format: cell-based
Text: (§1) The antibacterial and synergistic properties of sodium deoxyclavulanate are illustrated by the following in-vitro results: | Minimum Inhibitory Concentration | (μg/ml) of Ampicillin in Presence | of Various Concentrations of | Sodium Deoxyclavulanate (μg/ml) |Organism 0 1 5 20

Klebsiella aerogenes E70 = assay: as above; format: cell-based
Text: as §1

[2] = prior disclosures; cited from earlier work
β-lactamase = details: prior disclosures; cited from earlier work
[3] = Overt toxic effects in mice, intraperitoneal; format: in vivo; details: intra peritoneally, 500 mg/kg
Bacillus subtilis A = assay: In-vitro minimum inhibitory concentration; format: cell-based
Text: (§2) The antibacterial and synergistic properties of sodium deoxyclavulanate are illustrated by the following in-vitro results: | Minimum Inhibitory | Concentration of Sodium | Organism Deoxyclavulanate (μg/ml)

Pseudomonas aeruginosa A = assay: In-vitro minimum inhibitory concentration; format: cell-based
Text: as §2

Staph. aureus Russell = assay: In-vitro minimum inhibitory concentration; format: cell-based; details: Staphylococcus aureus
Text: as §2

[4] = system: Serratia marcescens US 39; assay: In-vitro minimum inhibitory concentration; format: cell-based; details: US39
Text: as §2

Escherichia coli 10418 = assay: In-vitro minimum inhibitory concentration; format: cell-based
Text: as §2

Klebsiella aerogenes A = assay: In-vitro minimum inhibitory concentration; format: cell-based
Text: as §2

Enterobacter cloacae N1 = assay: In-vitro minimum inhibitory concentration; format: cell-based
Text: as §2

[5] = system: Salmonella typhimurium CT10; assay: In-vitro minimum inhibitory concentration; format: cell-based; details: Salmonella enterica
Text: as §2

Staph. aureus Oxford = assay: In-vitro minimum inhibitory concentration; format: cell-based; details: Staphylococcus aureus
Text: as §2

Proteus mirabilis C 977 = assay: In-vitro minimum inhibitory concentration; format: cell-based; details: C977
Text: as §2

[6] = sodium deoxyclavulanate 0 μg/ml, read-out: Minimum Inhibitory Concentration of Ampicillin
[7] = sodium deoxyclavulanate 1 μg/ml
[8] = sodium deoxyclavulanate 5 μg/ml

## CC1(C)S[C@@H]2[C@H](NC(=O)[C@H](N)c3ccccc3)C(=O)N2[C@H]1C(=O)O [Ampicillin]
[1]; [6]
  MIC: 500 µg/mL
[1]; [7]
  Minimum Inhibitory Concentration of Ampicillin in Presence of Sodium Deoxyclavulanate: 0.8 µg/mL
[1]; [8]
  Minimum Inhibitory Concentration of Ampicillin in Presence of Sodium Deoxyclavulanate: 0.08 µg/mL
Klebsiella aerogenes E70; [6]
  MIC: > 500 µg/mL
Klebsiella aerogenes E70; [7]
  Minimum Inhibitory Concentration of Ampicillin in Presence of Sodium Deoxyclavulanate: 0.8 µg/mL
Klebsiella aerogenes E70; [8]
  Minimum Inhibitory Concentration of Ampicillin in Presence of Sodium Deoxyclavulanate: 0.2 to 0.4 µg/mL

## O=C(O)[C@H]1/C(=C\CO)O[C@@H]2CC(=O)N21 [Isoclavulanic acid, isoclavulanic acid]
[2]
  anti-bacterial activity: also have anti-bacterial
β-lactamase
  β-lactamase inhibitory activity: β-lactamase inhibitory activity

## C/C=C1\O[C@@H]2CC(=O)N2[C@H]1C(=O)O [Sodium deoxyclavulanate, Sodium Deoxyclavulanate]
[3]
  overt toxic effects: did not appear to produce any overt toxic effects
Bacillus subtilis A
  MIC: 62.5 µg/mL
Pseudomonas aeruginosa A
  MIC: 1000 µg/mL
Staph. aureus Russell
  MIC: 31 µg/mL
[4]
  MIC: 125 µg/mL
Escherichia coli 10418
  MIC: 62.5 µg/mL
Klebsiella aerogenes A
  MIC: 62.5 µg/mL
Enterobacter cloacae N1
  MIC: 125 µg/mL
[5]
  MIC: 125 µg/mL
Staph. aureus Oxford
  MIC: 15.6 µg/mL
Proteus mirabilis C 977
  MIC: 125 µg/mL
[1]; sodium deoxyclavulanate 20 μg/ml
  Inhibition by sodium deoxyclavulanate alone: Inhibition produced by sodium deoxyclavulanate alone

## O=C(O)[C@H]1/C(=C/CO)O[C@@H]2CC(=O)N21 [clavulanic acid]
[2]
  anti-bacterial activity: possess anti-bacterial
β-lactamase
  β-lactamase inhibitory activity: β-lactamase inhibitory activity
